Results: patent US9040530B2, “1,2,4-triazine-6-carboxamide kinase inhibitors” (Portola Pharmaceuticals, Inc., priority 2012, dated 2015)

biological target: T1, full length active recombinant SYK enzyme (Homo sapiens, UniProt P43405); assay: Inhibition of Syk tyrosine phosphorylation activity (LANCE TR-FRET kinase assay); format: biochemical; conditions: 1 nM active SYK enzyme, 550 nM SYK-substrate, 100 μM ATP, 1 hour at room temperature
T1 construct: full length active recombinant SYK enzyme (Millipore, Calif.); purchased Millipore

| Structure (SMILES) | IC50 |
| --- | --- |
| NC(=O)c1nnc(N[C@@H]2CCCC(F)(F)[C@@H]2N)nc1Nc1ccc2c(c1)CS(=O)(=O)C2 [Example 217, 3-(((1R,2R)-2-amino-3,3-difluorocyclohexyl)amino)-5-((2,2-dioxido-1,3-dihydrobenzo[c]thiophen-5-yl)amino)-1,2,4-triazine-6-carboxamide] | 100 to 1000 nM |
| Cc1ccc(Nc2nc(N[C@H](CC3CC3)C(N)=O)nnc2C(N)=O)cc1 [Example 226, (R)-3-((1-amino-3-cyclopropyl-1-oxopropan-2-yl)amino)-5-(p-tolylamino)-1,2,4-triazine-6-carboxamide] | 10 to 100 nM |
| COc1cc(Nc2nc(N[C@@H]3CCCC(F)(F)[C@@H]3N)nnc2C(N)=O)ccc1C [Example 229, 3-(((1R,2R)-2-amino-3,3-difluorocyclohexyl)amino)-5-((3-methoxy-4-methylphenyl)amino)-1,2,4-triazine-6-carboxamide] | 10 to 100 nM |
| COc1cc(Nc2nc(N[C@@H]3CCCC(F)(F)[C@@H]3N)nnc2C(N)=O)ccc1Cl [Example 230, 3-(((1R,2R)-2-amino-3,3-difluorocyclohexyl)amino)-5-((4-chloro-3-methoxyphenyl)amino)-1,2,4-triazine-6-carboxamide] | 100 to 1000 nM |
| CC[C@@H](Nc1nnc(C(N)=O)c(Nc2ccc(C)c(OC)c2)n1)C(N)=O [Example 231, (R)-3-((1-amino-1-oxobutan-2-yl)amino)-5-((3-methoxy-4-methylphenyl)amino)-1,2,4-triazine-6-carboxamide] | 10 to 100 nM |
| CC[C@@H](Nc1nnc(C(N)=O)c(Nc2ccc(Cl)c(OC)c2)n1)C(N)=O [Example 232, (R)-3-((1-amino-1-oxobutan-2-yl)amino)-5-((4-chloro-3-methoxyphenyl)amino)-1,2,4-triazine-6-carboxamide] | 10 to 100 nM |
| Cc1ccc(Nc2nc(N[C@@H]3CCCC(F)(F)[C@@H]3N)nnc2C(N)=O)cc1C#N [Example 233, 3-(((1R,2R)-2-amino-3,3-difluorocyclohexyl)amino)-5-((3-cyano-4-methylphenyl)amino)-1,2,4-triazine-6-carboxamide] | 100 to 1000 nM |
| CC[C@@H](Nc1nnc(C(N)=O)c(Nc2ccc(C)c(C#N)c2)n1)C(N)=O [Example 234, (R)-3-((1-amino-1-oxobutan-2-yl)amino)-5-((3-cyano-4-methylphenyl)amino)-1,2,4-triazine-6-carboxamide] | 100 to 1000 nM |
| CC[C@@H](Nc1nnc(C(N)=O)c(Nc2ccc(Cl)c(Cl)c2)n1)C(N)=O [Example 235, (R)-3-((1-amino-1-oxobutan-2-yl)amino)-5-((3,4-dichlorophenyl)amino)-1,2,4-triazine-6-carboxamide] | 10 to 100 nM |
| NC(=O)c1nnc(N[C@@H]2CCCC(F)(F)[C@@H]2N)nc1Nc1ccc(Cl)c(Cl)c1 [Example 236, 3-(((1R,2R)-2-amino-3,3-difluorocyclohexyl)amino)-5-((3,4-dichlorophenyl)amino)-1,2,4-triazine-6-carboxamide] | 100 to 1000 nM |
| NC(=O)c1nnc(N[C@@H]2CCCC(F)(F)[C@@H]2N)nc1Nc1ccc2c(c1)CCCC2 [Example 237, 3-(((1R,2R)-2-amino-3,3-difluorocyclohexyl)amino)-5-((5,6,7,8-tetrahydronaphthalen-2-yl)amino)-1,2,4-triazine-6-carboxamide] | 10 to 100 nM |
| NC(=O)c1nnc(N[C@@H]2CCCC(F)(F)[C@@H]2N)nc1Nc1cccc(C(F)(F)F)c1 [Example 238, 3-(((1R,2R)-2-amino-3,3-difluorocyclohexyl)amino)-5-((3-(trifluoromethyl)phenyl)amino)-1,2,4-triazine-6-carboxamide] | > 1000 nM |
| NC(=O)c1nnc(N[C@@H]2CCCC(F)(F)[C@@H]2N)nc1Nc1ccc(C(F)(F)F)cc1 [Example 239, 3-(((1R,2R)-2-amino-3,3-difluorocyclohexyl)amino)-5-((4-(trifluoromethyl)phenyl)amino)-1,2,4-triazine-6-carboxamide] | 10 to 100 nM |
| CC[C@@H](Nc1nnc(C(N)=O)c(Nc2ccc(Cl)c(C(F)(F)F)c2)n1)C(N)=O [Example 240, (R)-3-((1-amino-1-oxobutan-2-yl)amino)-5-((4-chloro-3-(trifluoromethyl)phenyl)amino)-1,2,4-triazine-6-carboxamide] | 100 to 1000 nM |
| CC[C@@H](Nc1nnc(C(N)=O)c(Nc2ccc(C(F)(F)F)c(Cl)c2)n1)C(N)=O [Example 241, (R)-3-((1-amino-1-oxobutan-2-yl)amino)-5-((3-chloro-4-(trifluoromethyl)phenyl)amino)-1,2,4-triazine-6-carboxamide] | 10 to 100 nM |
| NC(=O)c1nnc(N[C@@H]2CCOC[C@@H]2N)nc1Nc1ccc(C(F)(F)F)cc1 [Example 242, 3-(((3R,4R)-3-aminotetrahydro-2H-pyran-4-yl)amino)-5-((4-(trifluoromethyl)phenyl)amino)-1,2,4-triazine-6-carboxamide] | 10 to 100 nM |

The next lines start with the values.

| IC50 | Structure (SMILES) |
| --- | --- |
| 1 to 10 nM | Cc1ccc(Nc2nc(N[C@H](CC3CC3)C(N)=O)nnc2C(N)=O)cc1C [Example 210, (R)-3-((1-amino-3-cyclopropyl-1-oxopropan-2-yl)amino)-5-((3,4-dimethylphenyl)amino)-1,2,4-triazine-6-carboxamide] |
| 1 to 10 nM | CC[C@@H](Nc1nnc(C(N)=O)c(Nc2ccc3c(c2)CCC3)n1)C(N)=O [Example 211, (R)-3-((1-amino-1-oxobutan-2-yl)amino)-5-((2,3-dihydro-1H-inden-5-yl)amino)-1,2,4-triazine-6-carboxamide] |
| 10 to 100 nM | CC[C@@H](Nc1nnc(C(N)=O)c(Nc2ccc3c(c2)CCOC3)n1)C(N)=O [Example 212, (R)-3-((1-amino-1-oxobutan-2-yl)amino)-5-(isochroman-6-ylamino)-1,2,4-triazine-6-carboxamide] |
| 10 to 100 nM | NC(=O)c1nnc(N[C@@H]2CCCC(F)(F)[C@@H]2N)nc1Nc1ccc2c(c1)CCC2 [Example 213, 3-(((1R,2R)-2-amino-3,3-difluorocyclohexyl)amino)-5-((2,3-dihydro-1H-inden-5-yl)amino)-1,2,4-triazine-6-carboxamide] |
| 10 to 100 nM | NC(=O)c1nnc(N[C@@H]2CCCC(F)(F)[C@@H]2N)nc1Nc1ccc2c(c1)CCOC2 [Example 214, 3-(((1R,2R)-2-amino-3,3-difluorocyclohexyl)amino)-5-(isochroman-6-ylamino)-1,2,4-triazine-6-carboxamide] |
| 10 to 100 nM | CC[C@@H](Nc1nnc(C(N)=O)c(Nc2ccc3c(c2)COC3)n1)C(N)=O [Example 215, (R)-3-((1-amino-1-oxobutan-2-yl)amino)-5-((1,3-dihydroisobenzofuran-5-yl)amino)-1,2,4-triazine-6-carboxamide] |
| 10 to 100 nM | NC(=O)c1nnc(N[C@@H]2CCCC(F)(F)[C@@H]2N)nc1Nc1ccc2c(c1)COC2 [Example 216, 3-(((1R,2R)-2-amino-3,3-difluorocyclohexyl)amino)-5-((1,3-dihydroisobenzofuran-5-yl)amino)-1,2,4-triazine-6-carboxamide] |
| 10 to 100 nM | Cc1cc(Nc2nc(N[C@@H]3CCCC(F)(F)[C@@H]3N)nnc2C(N)=O)ccc1Cl [Example 218, 3-(((1R,2R)-2-amino-3,3-difluorocyclohexyl)amino)-5-((4-chloro-3-methylphenyl)amino)-1,2,4-triazine-6-carboxamide] |
| 10 to 100 nM | Cc1ccc(Nc2nc(N[C@@H]3CCCC(F)(F)[C@@H]3N)nnc2C(N)=O)cc1Cl [Example 219, 3-(((1R,2R)-2-amino-3,3-difluorocyclohexyl)amino)-5-((3-chloro-4-methylphenyl)amino)-1,2,4-triazine-6-carboxamide] |
| 10 to 100 nM | CC[C@@H](Nc1nnc(C(N)=O)c(Nc2ccc3c(c2)CS(=O)(=O)C3)n1)C(N)=O [Example 220, (R)-3-((1-amino-1-oxobutan-2-yl)amino)-5-((2,2-dioxido-1,3-dihydrobenzo[c]thiophen-5-yl)amino)-1,2,4-triazine-6-carboxamide] |
| 10 to 100 nM | CC[C@@H](Nc1nnc(C(N)=O)c(Nc2ccc(Cl)c(C)c2)n1)C(N)=O [Example 221, (R)-3-((1-amino-1-oxobutan-2-yl)amino)-5-((4-chloro-3-methylphenyl)amino)-1,2,4-triazine-6-carboxamide] |
| 10 to 100 nM | CC[C@@H](Nc1nnc(C(N)=O)c(Nc2ccc(C)c(Cl)c2)n1)C(N)=O [Example 222, (R)-3-((1-amino-1-oxobutan-2-yl)amino)-5-((3-chloro-4-methylphenyl)amino)-1,2,4-triazine-6-carboxamide] |
| 1 to 10 nM | NC(=O)c1nnc(N[C@@H]2CCOC[C@@H]2N)nc1Nc1ccc2c(c1)CCC2 [Example 223, 3-(((3R,4R)-3-aminotetrahydro-2H-pyran-4-yl)amino)-5-((2,3-dihydro-1H-inden-5-yl)amino)-1,2,4-triazine-6-carboxamide] |
| 1 to 10 nM | Cc1cc(Nc2nc(N[C@@H]3CCOC[C@@H]3N)nnc2C(N)=O)ccc1Cl [Example 224, 3-(((3R,4R)-3-aminotetrahydro-2H-pyran-4-yl)amino)-5-((4-chloro-3-methylphenyl)amino)-1,2,4-triazine-6-carboxamide] |
| 1 to 10 nM | Cc1ccc(Nc2nc(N[C@@H]3CCOC[C@@H]3N)nnc2C(N)=O)cc1Cl [Example 225, 3-(((3R,4R)-3-aminotetrahydro-2H-pyran-4-yl)amino)-5-((3-chloro-4-methylphenyl)amino)-1,2,4-triazine-6-carboxamide] |
| 1 to 10 nM | CC[C@@H](Nc1nnc(C(N)=O)c(Nc2ccc3c(c2)COCC3)n1)C(N)=O [Example 227, (R)-3-((1-amino-1-oxobutan-2-yl)amino)-5-(isochroman-7-ylamino)-1,2,4-triazine-6-carboxamide] |
| 1 to 10 nM | NC(=O)c1nnc(N[C@@H]2CCCC(F)(F)[C@@H]2N)nc1Nc1ccc2c(c1)COCC2 [Example 228, 3-(((1R,2R)-2-amino-3,3-difluorocyclohexyl)amino)-5-(isochroman-7-ylamino)-1,2,4-triazine-6-carboxamide] |
